Like-named read-outs stand apart in the source and are kept apart here.
Assays:
[1] = test system: TGF-β1; experiment: Fibrosis inhibition evaluation 2, palmitic acid-induced HepG2, real-time PCR, TGF-β1
[2] = molecular target: MLK1 (Homo sapiens (Human), UniProt P80192); experiment: Evaluation of inhibitory activity of enzyme units, MLK1 ([γ-33P]-ATP filter assay); assay type: biochemical
[3] = test system: Fibronectin-1; experiment: Fibrosis inhibition evaluation 2, palmitic acid-induced HepG2, real-time PCR, Fibronectin-1
[4] = test system: acute lymphoblastic leukemia cell line Jurkat; experiment: Cancer cell proliferation inhibitory activity evaluation 2 (CCK-8), Jurkat; assay type: cell-based; details: Homo sapiens
[5] = molecular target: MLK3 (Homo sapiens (Human), UniProt Q16584); experiment: Evaluation of inhibitory activity of enzyme units, MLK3 ([γ-33P]-ATP filter assay)
Sequence of MLK3 (Q16584 whole entry, looked up): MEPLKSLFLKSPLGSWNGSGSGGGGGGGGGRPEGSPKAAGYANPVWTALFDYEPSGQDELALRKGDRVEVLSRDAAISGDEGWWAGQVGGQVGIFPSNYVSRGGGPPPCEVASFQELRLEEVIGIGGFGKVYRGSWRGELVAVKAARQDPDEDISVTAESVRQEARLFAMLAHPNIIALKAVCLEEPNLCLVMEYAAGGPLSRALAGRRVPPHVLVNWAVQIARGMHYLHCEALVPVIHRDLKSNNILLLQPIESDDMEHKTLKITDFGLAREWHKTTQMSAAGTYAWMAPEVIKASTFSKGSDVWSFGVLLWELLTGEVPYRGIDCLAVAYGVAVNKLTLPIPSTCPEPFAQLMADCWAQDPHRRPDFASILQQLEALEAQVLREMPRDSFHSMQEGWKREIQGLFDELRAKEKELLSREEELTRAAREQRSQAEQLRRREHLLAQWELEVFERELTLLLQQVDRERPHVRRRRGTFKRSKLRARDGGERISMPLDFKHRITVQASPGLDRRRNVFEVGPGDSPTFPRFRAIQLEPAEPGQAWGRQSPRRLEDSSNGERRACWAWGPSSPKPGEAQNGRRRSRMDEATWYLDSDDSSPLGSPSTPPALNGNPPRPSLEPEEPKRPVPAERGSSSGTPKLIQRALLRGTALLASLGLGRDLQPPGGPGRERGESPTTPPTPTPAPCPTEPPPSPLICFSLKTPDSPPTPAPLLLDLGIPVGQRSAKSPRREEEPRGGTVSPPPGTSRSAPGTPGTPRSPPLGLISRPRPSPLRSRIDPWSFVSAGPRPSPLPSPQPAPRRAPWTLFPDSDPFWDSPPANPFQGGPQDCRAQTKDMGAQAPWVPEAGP

[6] = test system: α-SMA; experiment: Fibrosis inhibition evaluation 2, palmitic acid-induced HepG2, real-time PCR, α-SMA; details: palmitic acid-induced HepG2 (Table 8)
[7] = test system: acute myeloid leukemia cell line U937; experiment: Cancer cell proliferation inhibitory activity evaluation 2 (CCK-8), U937; assay type: cell-based; details: Homo sapiens, read-out: Cancer cell proliferation inhibitory activity U937
[8] = molecular target: MLK2 (Homo sapiens (Human), UniProt Q02779); experiment: Evaluation of inhibitory activity of enzyme units, MLK2 ([γ-33P]-ATP filter assay); assay type: biochemical
[9] = test system: gastric cancer cell line AGS; experiment: Cancer cell proliferation inhibitory activity evaluation 2 (CCK-8), AGS; assay type: cell-based; details: Homo sapiens, read-out: Cancer cell proliferation inhibitory activity AGS
[10] = test system: influenza virus LE; experiment: microbe, parasite or virus in culture; assay type: cell-based; details: unidentified influenza virus, MDCK, read-out: Antiviral activity (EC50, μM) LE
[11] = test system: influenza virus PR8; experiment: microbe, parasite or virus in culture; assay type: cell-based
[12] = test system: influenza virus HK; experiment: microbe, parasite or virus in culture; assay type: cell-based
[13] = in vitro; details: dog
[14] = test system: colorectal cancer cell line HT-29; experiment: Cancer cell proliferation inhibitory activity evaluation 1 (CCK-8), HT-29; assay type: cell-based; details: Homo sapiens, HT-29, 72 h, read-out: Cancer cell proliferation inhibitory activity HT29
[15] = test system: acute myeloid leukemia cell line U937; experiment: Cancer cell proliferation inhibitory activity evaluation 1 (CCK-8), U937; assay type: cell-based; details: Homo sapiens, U-937, 72 h, read-out: Cancer cell proliferation inhibitory activity U937
[16] = test system: human breast cancer cell line MDA-MB-231; experiment: Cancer cell proliferation inhibitory activity evaluation 1 (CCK-8), MDA-MB-231; assay type: cell-based; details: MDA-MB-231, 72 h, read-out: Cancer cell proliferation inhibitory activity MDAMB231
[17] = molecular target: LRRK2 mutant (G2019S) (Homo sapiens (Human), UniProt Q5S007, G2019S); experiment: Evaluation of inhibitory activity against LRRK2 (affinity bead competition binding), G2019S mutant; details: read-out: Residual active values (%) LRRK2(G2019S); for remaining binding at 0.1 µM: 100 nM; for remaining binding at 0.5 µM: 500 nM
Sequence of LRRK2 mutant (G2019S) (Q5S007 whole entry G2019S, looked up): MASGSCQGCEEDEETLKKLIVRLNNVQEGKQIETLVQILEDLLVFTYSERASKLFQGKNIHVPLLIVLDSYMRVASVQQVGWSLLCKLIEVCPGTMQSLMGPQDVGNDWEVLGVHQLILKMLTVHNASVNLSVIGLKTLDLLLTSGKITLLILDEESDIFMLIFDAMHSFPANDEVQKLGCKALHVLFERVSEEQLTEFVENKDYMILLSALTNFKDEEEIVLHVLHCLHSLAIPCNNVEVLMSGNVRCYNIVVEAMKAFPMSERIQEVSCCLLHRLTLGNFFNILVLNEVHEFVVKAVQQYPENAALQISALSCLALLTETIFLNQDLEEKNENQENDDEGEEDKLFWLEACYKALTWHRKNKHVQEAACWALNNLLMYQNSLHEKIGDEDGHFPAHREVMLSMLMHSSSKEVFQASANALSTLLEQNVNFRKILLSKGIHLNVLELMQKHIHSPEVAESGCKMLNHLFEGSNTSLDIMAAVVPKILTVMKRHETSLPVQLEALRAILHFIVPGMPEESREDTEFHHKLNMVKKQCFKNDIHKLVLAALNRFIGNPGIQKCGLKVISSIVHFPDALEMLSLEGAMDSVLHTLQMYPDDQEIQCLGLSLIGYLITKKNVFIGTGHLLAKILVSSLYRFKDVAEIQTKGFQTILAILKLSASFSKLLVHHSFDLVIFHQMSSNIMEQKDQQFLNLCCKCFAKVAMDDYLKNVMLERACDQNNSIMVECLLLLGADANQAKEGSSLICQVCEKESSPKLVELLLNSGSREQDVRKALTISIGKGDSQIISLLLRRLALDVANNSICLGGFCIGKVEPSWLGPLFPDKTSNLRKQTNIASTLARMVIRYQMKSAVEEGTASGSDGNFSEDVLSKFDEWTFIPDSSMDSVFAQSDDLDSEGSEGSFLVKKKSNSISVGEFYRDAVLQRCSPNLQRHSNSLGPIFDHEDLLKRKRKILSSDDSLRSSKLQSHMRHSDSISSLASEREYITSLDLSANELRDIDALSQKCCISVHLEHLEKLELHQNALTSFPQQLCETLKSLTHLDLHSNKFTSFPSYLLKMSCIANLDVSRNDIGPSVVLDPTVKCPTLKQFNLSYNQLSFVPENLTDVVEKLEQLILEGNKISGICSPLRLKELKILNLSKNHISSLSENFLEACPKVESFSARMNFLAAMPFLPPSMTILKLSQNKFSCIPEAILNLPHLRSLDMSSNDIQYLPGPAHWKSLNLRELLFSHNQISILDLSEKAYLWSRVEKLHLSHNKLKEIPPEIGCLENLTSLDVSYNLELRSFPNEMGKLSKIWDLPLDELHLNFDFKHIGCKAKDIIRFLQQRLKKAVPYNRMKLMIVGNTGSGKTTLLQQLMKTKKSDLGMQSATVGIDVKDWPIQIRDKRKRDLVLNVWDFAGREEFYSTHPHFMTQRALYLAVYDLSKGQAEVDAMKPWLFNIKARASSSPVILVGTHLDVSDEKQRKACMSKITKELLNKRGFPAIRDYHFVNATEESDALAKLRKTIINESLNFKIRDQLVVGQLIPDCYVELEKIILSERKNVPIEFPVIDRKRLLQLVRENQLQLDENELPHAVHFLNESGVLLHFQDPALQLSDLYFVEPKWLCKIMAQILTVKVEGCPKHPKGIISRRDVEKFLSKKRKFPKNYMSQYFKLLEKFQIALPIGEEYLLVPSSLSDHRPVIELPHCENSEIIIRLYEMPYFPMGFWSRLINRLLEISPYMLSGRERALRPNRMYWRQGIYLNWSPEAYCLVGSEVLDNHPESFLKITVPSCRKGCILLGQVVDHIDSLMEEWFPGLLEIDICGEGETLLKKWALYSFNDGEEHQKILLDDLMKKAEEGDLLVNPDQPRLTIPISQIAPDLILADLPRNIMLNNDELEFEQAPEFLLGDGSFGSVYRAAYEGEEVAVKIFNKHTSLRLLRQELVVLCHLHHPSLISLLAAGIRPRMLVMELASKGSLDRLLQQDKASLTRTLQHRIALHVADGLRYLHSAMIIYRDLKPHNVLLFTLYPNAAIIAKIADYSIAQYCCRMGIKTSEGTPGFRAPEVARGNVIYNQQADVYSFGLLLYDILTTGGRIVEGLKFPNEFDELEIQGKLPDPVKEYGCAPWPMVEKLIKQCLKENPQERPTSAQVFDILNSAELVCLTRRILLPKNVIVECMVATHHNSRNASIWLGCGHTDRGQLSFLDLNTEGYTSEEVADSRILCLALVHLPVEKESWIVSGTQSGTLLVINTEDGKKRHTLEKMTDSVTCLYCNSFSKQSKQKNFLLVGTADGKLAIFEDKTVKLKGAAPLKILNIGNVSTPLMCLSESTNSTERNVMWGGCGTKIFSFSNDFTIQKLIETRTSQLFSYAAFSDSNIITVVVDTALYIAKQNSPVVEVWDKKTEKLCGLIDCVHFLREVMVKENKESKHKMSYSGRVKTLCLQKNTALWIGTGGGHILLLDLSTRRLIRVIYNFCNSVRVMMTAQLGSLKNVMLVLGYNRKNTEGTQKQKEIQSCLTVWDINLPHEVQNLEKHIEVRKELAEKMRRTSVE
Procedure, shortened: (§1)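 Competition binding against immobilized biotinylated ligand for DNA-tagged wild-type or G2019S LRRK2, produced from T7 phage-infected E. coli (MOI 0.4, 32° C.) lysate then HEK293 cells. Beads blocked and washed in SeaBlock buffer (1% BSA, 0.05% Tween 20, 1 mM DTT); compounds prepared as 40× stocks in 100% DMSO.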

[18] = test system: chronic myeloid leukemia cell line K562; experiment: Cancer cell proliferation inhibitory activity evaluation 1 (CCK-8), K562; assay type: cell-based; details: Homo sapiens, K562, 72 h, read-out: Cancer cell proliferation inhibitory activity K562
[19] = molecular target: LRRK2 wild-type (Homo sapiens (Human), UniProt Q5S007); experiment: Evaluation of inhibitory activity against LRRK2 (affinity bead competition binding), wild-type; details: read-out: Residual active values (%) LRRK2; for remaining binding at 0.1 µM: 100 nM; for remaining binding at 0.5 µM: 500 nM
Sequence of LRRK2 wild-type (Q5S007 whole entry, looked up): as the sequence (Q5S007 whole entry G2019S, looked up) above, with S2019G counted along it
Procedure, shortened: as §1

[20] = test system: gastric cancer cell line Hs746T; experiment: Cancer cell proliferation inhibitory activity evaluation 2 (CCK-8), Hs746T; assay type: cell-based; details: Homo sapiens
[21] = test system: human lung cancer cell line A549; experiment: Cancer cell proliferation inhibitory activity evaluation 2 (CCK-8), A549; assay type: cell-based
[22] = 10 μM, 72 hours, CCK-8, read-out: Cancer cell proliferation inhibitory activity Jurkat
[23] = U-937, 10 μM, 72 hours, CCK-8 (Table 3)
[24] = 72 h, read-out: Cancer cell proliferation inhibitory activity Jurkat
[25] = 10 μM, 72 hours, CCK-8, read-out: Cancer cell proliferation inhibitory activity Hs746T
[26] = A549, 10 μM, 72 hours, CCK-8, read-out: Cancer cell proliferation inhibitory activity A549

Sequence of MLK1 (P80192 whole entry, looked up): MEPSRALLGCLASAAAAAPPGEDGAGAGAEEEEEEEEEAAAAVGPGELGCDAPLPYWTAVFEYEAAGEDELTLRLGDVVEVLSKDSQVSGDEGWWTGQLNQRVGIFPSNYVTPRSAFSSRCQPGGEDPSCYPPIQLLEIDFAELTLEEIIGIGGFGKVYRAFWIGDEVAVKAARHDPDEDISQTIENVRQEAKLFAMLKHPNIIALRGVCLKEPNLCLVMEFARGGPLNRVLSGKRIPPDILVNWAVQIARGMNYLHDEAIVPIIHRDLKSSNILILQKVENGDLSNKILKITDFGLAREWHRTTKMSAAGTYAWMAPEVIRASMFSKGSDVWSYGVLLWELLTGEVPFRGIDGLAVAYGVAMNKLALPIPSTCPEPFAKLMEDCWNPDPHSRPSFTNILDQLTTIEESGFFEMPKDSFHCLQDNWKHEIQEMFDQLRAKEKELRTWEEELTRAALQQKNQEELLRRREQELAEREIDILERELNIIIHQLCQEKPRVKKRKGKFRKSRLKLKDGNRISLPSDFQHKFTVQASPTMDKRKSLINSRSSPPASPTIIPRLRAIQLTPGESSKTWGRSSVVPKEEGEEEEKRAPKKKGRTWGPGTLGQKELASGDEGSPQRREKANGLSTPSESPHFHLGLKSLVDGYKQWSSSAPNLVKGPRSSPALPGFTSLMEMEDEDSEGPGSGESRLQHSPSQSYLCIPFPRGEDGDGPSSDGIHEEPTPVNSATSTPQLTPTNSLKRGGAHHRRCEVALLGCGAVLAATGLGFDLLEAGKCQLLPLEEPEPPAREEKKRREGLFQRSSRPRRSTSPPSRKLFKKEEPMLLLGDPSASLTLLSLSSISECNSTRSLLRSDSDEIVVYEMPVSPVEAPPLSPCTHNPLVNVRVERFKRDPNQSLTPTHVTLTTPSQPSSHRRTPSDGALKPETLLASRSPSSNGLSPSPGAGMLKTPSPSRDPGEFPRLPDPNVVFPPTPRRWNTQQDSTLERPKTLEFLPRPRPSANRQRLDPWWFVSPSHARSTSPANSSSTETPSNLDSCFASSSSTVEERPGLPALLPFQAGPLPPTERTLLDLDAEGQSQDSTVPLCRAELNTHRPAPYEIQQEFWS

Structure (SMILES)	Relative degree of expression inhibition (%) TGF-β1 [1]	IC50 [2]	Relative degree of expression inhibition (%) Fibronectin-1 [3]	inhibition at 10 µM [4, 22]	IC50 ([5]; read-out: IC50(nM) MLK3)	Relative degree of expression inhibition (%) α-SMA [6]	inhibition at 10 µM [7, 23]	inhibition at 10 µM ([9]; 10 μM, 72 hours, CCK-8)	remaining binding at 0.1 µM [17]	remaining binding at 0.5 µM [17]	remaining binding at 0.1 µM [19]	remaining binding at 0.5 µM [19]	also measured
Cc1cc(-c2nc3c(Nc4ccc5c(c4)OCO5)c(Br)cnc3[nH]2)c(C)n1-c1cccc(S(N)(=O)=O)c1 [Example 44, 3-(3-(7-(benzo[d][1,3]dioxole-5-yl-amino)-6-bromo-3H-imidazo[4,5-b]pyridine-2-yl)-2,5-dimethyl-1H-pyrrol-1-yl)benzenesulfonamide]	57.05%	109 nM	75.60%	10 to 50%	27 nM	73.45%	10 to 50%	10 to 50%					IC50 [8]: 211 nM
CCS(=O)(=O)N1CC[C@H](Nc2c(Br)cnc3[nH]c(-c4cc(C)n(-c5cc(S(N)(=O)=O)ccc5Cl)c4C)nc23)C1 [Example 17, 3-(3-(6-bromo-7-(((S)-1-(ethylsulfonyl)pyrrolidine-3-yl)amino)-3H-imidazo[4,5-b]pyridine-2-yl)-2,5-dimethyl-1H-pyrrol-1-yl)-4-chlorobenzenesulfonamide]				> 50%			10 to 50%	> 50%					EC50 [10]: > 100 µM; Selectivity index: CC50/EC50 PR8 [11]: >1.1; EC50 ([11]; unidentified influenza virus, PR8, MDCK, read-out: Antiviral activity (EC50, μM) PR8): 92.9 µM; Selectivity index: CC50/EC50 HK [12]: >9.3; EC50 ([12]; unidentified influenza virus, MDCK, read-out: Antiviral activity (EC50, μM) HK): 10.8 µM; IC50 [5]: 12 nM; CC50 at 3 days [13]: > 100000 nM
CCS(=O)(=O)N1CC[C@H](Nc2c(Br)cnc3[nH]c(-c4cc(C)n(-c5cccc(N6CCOCC6)c5)c4C)nc23)C1 [Example 2, (S)-6-bromo-2-(2,5-dimethyl-1-(3-morpholinophenyl)-1H-pyrrol-3-yl)-N-(1-(ethylsulfonyl)pyrrolidine-3-yl)-3H-imidazo[4,5-b]pyridine-7-amine]	97.39%		77.72%		4 nM	48.35%			4%	0.8%	17%	3.5%	inhibition at 10 µM [14]: > 50%; inhibition at 10 µM [15]: > 50%; inhibition at 10 µM [16]: > 50%; inhibition at 10 µM [4, 24]: 10 to 50%; inhibition at 10 µM ([7]; U-937, 72 h): 10 to 50%; inhibition at 10 µM [18]: > 50%; inhibition at 10 µM ([9]; 72 h): > 50%
Cc1ccc(C(=O)NCCN(C)C)cc1-n1c(C)cc(-c2nc3ncc(Br)c(Nc4cccc(S(N)(=O)=O)c4)c3[nH]2)c1C [Example 96, 3-(3-(6-bromo-7-((3-sulfamoylphenyl)amino)-1H-imidazo[4,5-b]pyridine-2-yl)-2,5-dimethyl-1H-pyrrol-1-yl)-N-(2-(dimethylamino)ethyl)-4-methylbenzamide]	92.86%	145 nM	61.67. %	< 10%	137 nM	37.83%	< 10%	< 10%	0.8%	0.6%	0.4%	0%	inhibition at 10 µM [20, 25]: 10 to 50%; inhibition at 10 µM [21, 26]: < 10%
Cc1ccc(C(=O)N2CCN(C)CC2)cc1-n1c(C)cc(-c2nc3ncc(Br)c(Nc4cccc(S(N)(=O)=O)c4)c3[nH]2)c1C [Example 95, 3-((6-bromo-2-(2,5-dimethyl-1-(2-methyl-5-(4-methylpiperazine-1-carbonyl)phenyl)-1H-pyrrol-3-yl)-1H-imidazo[4,5-b]pyridine-7-yl)amino)benzenesulfonamide]	45.25%	37 nM	65.78%	10 to 50%	60 nM	67.81%	< 10%	10 to 50%	79%	24%	68%	43%	inhibition at 10 µM [20, 25]: 10 to 50%; inhibition at 10 µM [21, 26]: < 10%
CCS(=O)(=O)N1CC[C@H](Nc2c(Br)cnc3nc(-c4cc(C)n(-c5cc(C(=O)NCCN(C)C)ccc5C)c4C)[nH]c23)C1 [Example 93, 3-(3-(6-bromo-7-(((S)-1-(ethylsulfonyl)pyrrolidine-3-yl)amino)-1H-imidazo[4,5-b]pyridine-2-yl)-2,5-dimethyl-1H-pyrrol-1-yl)-N-(2-(dimethylamino)ethyl)-4-methylbenzamide]	42.54%	33 nM	74.05%		54 nM	73.82%			66%	25%	60%	51%	inhibition at 10 µM [4, 24]: > 50%; inhibition at 10 µM ([20]; 72 h, read-out: Cancer cell proliferation inhibitory activity Hs746T): > 50%; inhibition at 10 µM ([7]; U-937, 72 h): > 50%; inhibition at 10 µM ([21]; A549, 72 h, read-out: Cancer cell proliferation inhibitory activity A549): 10 to 50%; inhibition at 10 µM ([9]; 72 h): > 50%
COCCOc1ccc(Nc2c(Br)cnc3[nH]c(-c4cc(C)n(-c5ccc6c(c5)OCO6)c4C)nc23)cc1 [Example 45, 2-(1-(benzo[d][1,3]dioxole-5-yl)-2,5-dimethyl-1H-pyrrol-3-yl)-6-bromo-N-(4-(2-methoxyethoxy)phenyl)-3H-imidazo[4,5-b]pyridine-7-amine]	33.15%	85 nM	60.64%	< 10%	32 nM	74.97%	10 to 50%	10 to 50%					IC50 [8]: 524 nM

Reference: patent US12545673B2, “Imidazopyridine derivative and pharmaceutical composition comprising same as active ingredient” (TSD LIFE SCIENCES CO., LTD., priority 2019, dated 2026)
